Measured values published in patent publication EP0930314A1, “p-TOLUENESULFONATE HYDRATE OF THIAZOLINE COMPOUND” (TAISHO PHARMACEUTICAL CO. LTD, priority 1996, dated 1998).
pIC50: −log10 of the molar value.

Key:
[1] = target: T1, Purified GPIIb/IIIa receptor (Homo sapiens, UniProt P05106+P08514); test: Fibrinogen receptor (GPIIb/IIIa) binding inhibition test (solid-phase, ELISA detection of bound fibrinogen); conditions: inhibition of fibrinogen (2 µg/ml) binding to solid phased purified GPIIb/IIIa, 4°C, 16 hours
T1 construct: from tissue; the cited Pytela method purifies the receptor from platelet extracts (own knowledge)
Protocol: Purified GPIIb/IIIa was prepared by referring to the methods of Pytela et al (Science, 231 (1986) 1559) and a binding measurement system of solid phased GPIIb/IIIa was carried out by referring to the method of Kouns et al (Blood, 80 (1992) 2539).
Purified GPIIb/IIIa receptor was solidified on 96-well microtiter plates by reacting in a solution (pH 7.4) containing 20 mM Tris-hydrochloric acid, 150 mM sodium chloride, 1 mM calcium chloride, 1 mM magnesium chloride and 0.0005 % Triton X-100 at 4°C for 16 hours. The solid phase was then washed once with a solution (pH 7.4) containing 20 mM Tris-hydrochloric acid, 150 mM sodium chloride, 1 mM calcium chloride, 1 mM magnesium chloride and 0.05 % Tween 20 (Buffer B), and blocked by a solution (pH 7.4) containing 20 mM Tris-hydrochloric acid, 150 mM sodium chloride, 1 mM calcium chloride, 1 mM magnesium chloride and 25 % Block Ace in an amount of 150 µL/well at room temperature for 2 hours. […] The amount of the fibrinogen bound to the plates was measured by an enzyme-linked immunosorbent assay method using antifibrinogen primary antibody and peroxidase-labelled secondary antibody to calculate IC50 value. […]

[2] = system: Blood platelet aggregation; test: Human in vitro blood platelet aggregation inhibition test (ADP-induced, PRP); assay type: cell-based; conditions: ADP final concentration 7 µM, concentration to inhibit the maximum aggregation by 50 %
Protocol: Citrated blood (the volume ratio of 3.13 % sodium citrate solution to blood is 1:9) was collected from the cubital vein of a healthy human who had not been received any drugs known to affect the function of blood platelet within 2 weeks prior to starting the test. The blood was centrifuged at 120 x g at room temperature for 15 minutes to give platelet rich plasma (PRP) as a supernatant, and further centrifuged at 1500 x g for 10 minutes to give platelet poor plasma (PPP) as a supernatant.
The blood platelet counts of PRP were adjusted to 50 ― 60 x 10^4/µL by diluting with PPP.
Blood platelet aggregation was monitored according to the method of Born G.V.R., [Nature, vol. 194, page 927 (1962)] using adenosine diphosphate (produced by Sigma Co.; hereinafter referred to as "ADP") as an aggregation-inducing substance. That is, a solution of Compound 1 or dihydrate of the compound of Formula (1) as a test drug in dimethyl sulfoxide was adjusted to the desired concentration with a physiological saline solution. […] The mixture was monitored for 5 minutes by using a blood platelet aggregation ability measurement apparatus (Aggricoda TM · PA-3210; made by Kyoto Daiichi Kagaku Co.) and the concentration of the test drug to inhibit the maximum aggregation by 50 % was calculated.

[3] = Hygroscopicity test (change rate of weight after storage at defined relative humidity); assay type: physicochemical; conditions: statement in words; test at 25°C, storage for 30 days, numeric data only in Fig 1
Protocol: Compound 1 obtained in the above example and dihydrate of the compound of Formula (1) were used as test drugs. About 100 mg of the test drug was taken into a weighing bottle and weighed accurately. The weighed test drug in the weighing bottle was stored at 25°C in a decicator which was adjusted to the defined relative humidity by using a desired saturated salt solution or a thermo-hygrostat (Tabaiestec SH-220) which was adjusted to the proper relative humidity.
After storage for 30 days, the test drug was weighed, and the change rate of weight was calculated to use as an index of hygroscopicity.

T1 sequence (P08514 32-887 limits assumed): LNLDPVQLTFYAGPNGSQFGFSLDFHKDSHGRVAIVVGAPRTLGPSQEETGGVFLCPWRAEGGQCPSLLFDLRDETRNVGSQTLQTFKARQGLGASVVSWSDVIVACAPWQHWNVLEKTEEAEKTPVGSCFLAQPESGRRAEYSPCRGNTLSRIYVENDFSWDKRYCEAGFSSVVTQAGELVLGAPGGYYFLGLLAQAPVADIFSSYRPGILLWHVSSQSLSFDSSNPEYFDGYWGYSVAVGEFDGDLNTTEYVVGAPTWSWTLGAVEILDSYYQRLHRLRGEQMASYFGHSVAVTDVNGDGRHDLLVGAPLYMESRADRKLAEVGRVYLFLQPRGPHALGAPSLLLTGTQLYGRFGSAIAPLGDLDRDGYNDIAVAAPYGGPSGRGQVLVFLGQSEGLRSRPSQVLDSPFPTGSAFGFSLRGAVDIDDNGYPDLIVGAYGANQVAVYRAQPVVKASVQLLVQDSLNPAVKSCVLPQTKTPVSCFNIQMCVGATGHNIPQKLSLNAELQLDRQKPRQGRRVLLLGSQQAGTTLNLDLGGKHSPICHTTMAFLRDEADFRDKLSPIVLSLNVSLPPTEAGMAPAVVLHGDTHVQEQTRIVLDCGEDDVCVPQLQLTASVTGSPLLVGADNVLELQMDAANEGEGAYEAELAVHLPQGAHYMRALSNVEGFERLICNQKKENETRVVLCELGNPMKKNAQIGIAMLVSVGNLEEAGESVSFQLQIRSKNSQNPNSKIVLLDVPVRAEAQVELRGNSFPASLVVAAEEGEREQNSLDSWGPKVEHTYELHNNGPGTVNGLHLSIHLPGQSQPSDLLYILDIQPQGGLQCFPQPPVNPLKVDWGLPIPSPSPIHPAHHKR
T1 sequence (P08514 891-1039 limits assumed): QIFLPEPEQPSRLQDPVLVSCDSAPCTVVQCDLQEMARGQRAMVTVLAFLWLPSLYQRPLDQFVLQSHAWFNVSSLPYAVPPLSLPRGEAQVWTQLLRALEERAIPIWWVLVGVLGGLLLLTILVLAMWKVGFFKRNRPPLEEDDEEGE
T1 sequence (P05106 27-788): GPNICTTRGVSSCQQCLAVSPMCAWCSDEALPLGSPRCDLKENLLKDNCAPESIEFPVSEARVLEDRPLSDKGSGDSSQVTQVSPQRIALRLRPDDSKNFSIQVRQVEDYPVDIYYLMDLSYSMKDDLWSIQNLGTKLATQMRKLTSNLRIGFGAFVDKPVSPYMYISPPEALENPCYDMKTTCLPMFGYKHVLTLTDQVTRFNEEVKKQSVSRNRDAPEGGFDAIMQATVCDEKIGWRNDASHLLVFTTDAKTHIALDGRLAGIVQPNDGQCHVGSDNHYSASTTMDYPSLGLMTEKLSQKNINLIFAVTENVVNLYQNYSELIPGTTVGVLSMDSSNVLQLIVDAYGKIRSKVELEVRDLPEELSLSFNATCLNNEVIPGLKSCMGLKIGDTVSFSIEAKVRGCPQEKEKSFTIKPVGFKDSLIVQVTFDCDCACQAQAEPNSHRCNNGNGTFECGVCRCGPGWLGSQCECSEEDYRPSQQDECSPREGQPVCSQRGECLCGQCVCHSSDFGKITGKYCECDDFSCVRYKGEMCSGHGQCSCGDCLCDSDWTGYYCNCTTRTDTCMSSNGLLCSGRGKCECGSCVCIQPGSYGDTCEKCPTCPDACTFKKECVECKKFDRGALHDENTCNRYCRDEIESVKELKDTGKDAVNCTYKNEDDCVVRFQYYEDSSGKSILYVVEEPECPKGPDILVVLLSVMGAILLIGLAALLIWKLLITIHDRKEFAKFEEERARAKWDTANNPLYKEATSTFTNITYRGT

SMILES | pIC50 [1] | pIC50 ([2]; Homo sapiens, Platelet) | hygroscopicity [3] | pIC50 [2]
Cc1c(C(=O)NCCC(=O)O)sc(=NC(=O)c2ccc(C(=N)N3CCC4(CC3)OCCO4)cc2)n1C [Compound 1, N-(2-carboxyethyl)-2-{4-[(4,4-ethylenedioxy)piperidin-1-yl]imidoylbenzoylimino}-3,4-dimethyl-3H-thiazoline-5-carboxamide p-toluenesulfonate dihydrate] | 10.09 | 7.66 | non-hygroscopic | –
Cc1c(C(=O)NCCC(=O)O)sc(=NC(=O)c2ccc(C(=N)N3CCC4(CC3)OCCO4)cc2)n1C [Dihydrate of the compound of Formula (1), reference compound] | – | – | – | 7.68
